A short description of test [1]: A Cell Based Secondary Assay To Explore Cytotoxicity of Compounds that Sensitize Mycobacterium Tuberculosis to Beta-Lactam Antibiotics. Type of test: functional.
Test [2] is described as follows: A cytotoxicity screen of small molecule inhibitors of the PhoP region in Salmonella typhi identified in the primary screen. [Related pubchem assays: 1850, 1864, 1985 ]. Type of test: functional.
The target of a further test is Albumin (Bos taurus, UniProt P02769). Put plainly: Counterscreen for inhibitors of T-cell receptor (TCR)-CD3 interaction: Fluorescence-based biochemical high throughput dose response assay to identify inhibitors of T-cell receptor (TCR)-CD3 interaction using a TAMRA-labeled BSA probe. Format: functional.
In the next test the target is T1, Exodeoxyribonuclease V (Escherichia coli (strain K12), UniProt P04993+P07648+P08394).
T1 sequence (P04993 whole entry): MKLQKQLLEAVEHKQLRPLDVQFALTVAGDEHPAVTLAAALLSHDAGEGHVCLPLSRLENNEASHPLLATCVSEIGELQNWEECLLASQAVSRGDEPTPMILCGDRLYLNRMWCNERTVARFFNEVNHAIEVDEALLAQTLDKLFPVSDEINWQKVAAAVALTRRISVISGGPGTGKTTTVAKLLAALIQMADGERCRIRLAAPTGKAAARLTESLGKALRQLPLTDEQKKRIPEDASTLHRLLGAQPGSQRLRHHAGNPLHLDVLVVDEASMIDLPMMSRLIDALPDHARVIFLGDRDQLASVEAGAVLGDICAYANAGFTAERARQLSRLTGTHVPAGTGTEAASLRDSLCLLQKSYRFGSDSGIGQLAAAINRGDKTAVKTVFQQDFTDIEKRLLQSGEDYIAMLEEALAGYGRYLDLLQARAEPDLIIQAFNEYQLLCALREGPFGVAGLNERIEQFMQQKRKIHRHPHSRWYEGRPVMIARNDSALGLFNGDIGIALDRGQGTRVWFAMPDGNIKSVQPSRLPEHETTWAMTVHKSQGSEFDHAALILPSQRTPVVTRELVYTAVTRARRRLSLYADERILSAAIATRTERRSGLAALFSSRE
T1 sequence (P07648 whole entry): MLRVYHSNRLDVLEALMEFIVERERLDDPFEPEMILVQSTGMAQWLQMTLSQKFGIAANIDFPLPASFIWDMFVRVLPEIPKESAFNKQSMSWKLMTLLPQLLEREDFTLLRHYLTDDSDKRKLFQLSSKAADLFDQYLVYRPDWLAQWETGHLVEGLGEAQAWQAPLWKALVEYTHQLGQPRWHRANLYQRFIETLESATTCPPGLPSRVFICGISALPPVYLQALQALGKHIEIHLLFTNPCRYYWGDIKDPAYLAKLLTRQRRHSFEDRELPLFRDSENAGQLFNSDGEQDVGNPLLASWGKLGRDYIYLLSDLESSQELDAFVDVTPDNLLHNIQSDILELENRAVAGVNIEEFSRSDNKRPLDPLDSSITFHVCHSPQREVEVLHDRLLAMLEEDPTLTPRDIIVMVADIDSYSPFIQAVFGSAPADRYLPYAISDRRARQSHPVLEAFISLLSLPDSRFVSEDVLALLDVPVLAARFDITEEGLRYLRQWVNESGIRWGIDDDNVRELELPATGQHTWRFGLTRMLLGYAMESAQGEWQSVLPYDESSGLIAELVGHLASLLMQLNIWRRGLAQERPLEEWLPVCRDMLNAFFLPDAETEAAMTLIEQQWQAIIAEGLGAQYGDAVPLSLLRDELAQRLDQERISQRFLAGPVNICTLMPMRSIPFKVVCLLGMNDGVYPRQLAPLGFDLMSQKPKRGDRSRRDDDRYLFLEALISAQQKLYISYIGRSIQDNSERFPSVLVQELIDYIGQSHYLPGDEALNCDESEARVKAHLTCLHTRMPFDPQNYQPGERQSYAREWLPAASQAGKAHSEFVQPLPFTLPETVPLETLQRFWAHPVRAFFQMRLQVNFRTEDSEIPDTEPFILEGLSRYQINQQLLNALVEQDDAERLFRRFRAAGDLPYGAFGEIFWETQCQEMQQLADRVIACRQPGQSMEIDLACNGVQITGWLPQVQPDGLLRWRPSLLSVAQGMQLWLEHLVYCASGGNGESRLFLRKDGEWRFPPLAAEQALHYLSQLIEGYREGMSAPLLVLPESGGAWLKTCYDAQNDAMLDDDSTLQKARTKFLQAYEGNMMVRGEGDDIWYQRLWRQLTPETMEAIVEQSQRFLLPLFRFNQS
T1 sequence (P08394 whole entry): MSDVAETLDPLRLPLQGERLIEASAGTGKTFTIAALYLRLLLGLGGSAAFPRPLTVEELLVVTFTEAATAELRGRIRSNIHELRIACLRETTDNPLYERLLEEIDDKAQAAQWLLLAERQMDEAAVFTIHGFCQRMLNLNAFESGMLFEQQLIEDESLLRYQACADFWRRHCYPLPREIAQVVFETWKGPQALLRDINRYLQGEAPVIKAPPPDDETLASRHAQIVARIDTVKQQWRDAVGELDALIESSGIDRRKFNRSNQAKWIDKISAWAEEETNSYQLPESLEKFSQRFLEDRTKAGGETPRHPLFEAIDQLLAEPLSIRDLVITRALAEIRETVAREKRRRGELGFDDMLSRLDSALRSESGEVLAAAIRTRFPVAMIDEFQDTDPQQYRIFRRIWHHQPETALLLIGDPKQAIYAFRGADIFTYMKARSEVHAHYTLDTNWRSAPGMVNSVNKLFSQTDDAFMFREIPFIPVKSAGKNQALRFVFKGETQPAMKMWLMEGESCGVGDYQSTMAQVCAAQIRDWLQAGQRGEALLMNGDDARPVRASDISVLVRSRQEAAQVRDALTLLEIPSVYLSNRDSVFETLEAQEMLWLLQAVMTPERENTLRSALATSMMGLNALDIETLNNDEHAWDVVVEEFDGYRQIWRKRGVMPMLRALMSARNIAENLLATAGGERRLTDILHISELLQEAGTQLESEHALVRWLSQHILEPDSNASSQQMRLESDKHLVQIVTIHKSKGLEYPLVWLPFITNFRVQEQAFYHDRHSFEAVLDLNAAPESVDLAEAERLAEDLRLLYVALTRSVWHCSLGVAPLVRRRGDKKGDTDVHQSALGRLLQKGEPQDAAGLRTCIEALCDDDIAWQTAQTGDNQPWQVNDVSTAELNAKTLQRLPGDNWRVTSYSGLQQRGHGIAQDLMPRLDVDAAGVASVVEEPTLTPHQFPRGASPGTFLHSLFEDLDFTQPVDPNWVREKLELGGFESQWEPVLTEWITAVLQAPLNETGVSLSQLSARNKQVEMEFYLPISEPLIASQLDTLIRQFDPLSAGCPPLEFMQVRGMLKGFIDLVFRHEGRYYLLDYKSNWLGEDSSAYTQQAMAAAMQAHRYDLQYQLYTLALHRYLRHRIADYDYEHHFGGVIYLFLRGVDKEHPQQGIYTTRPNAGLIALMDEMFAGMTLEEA
Put plainly: E. coli RecBCD inhibitors, dose response, counter-screen for AddAB inhibitor project, absorbance, V66 E. coli, mutant T4 phage (AID 492957). Format: functional, cell-based, Escherichia coli str. K-12 substr. MG1655. On the technique in general: Counterscreens check selectivity or assay interference.

Test [3] can be described thus: Counterscreen for AddAB inhibitors: absorbance-based bacterial cell-based high throughput dose response assay for inhibitors of bacterial viability. [Related pubchem assays (depositor defined):AID435030, AID449728, AID449731, AID488942, AID488955, AID488956]. Type of test: functional.
For test [4], the target named is T2, SUMO-activating enzyme (Homo sapiens, UniProt Q9UBT2). Put plainly: inhibitors of in vitro SUMOylation cascade, primary screen, biochemical, HTRF, uHTS (AID 2006). Type of test: protein-complex assay.
The target in test [5] is T2, SUMO-activating enzyme. Put plainly: SUMOylation inhibitor hit validation, confirmation, SUMOylation inhibitor project, biochemical, AlphaScreen (AID 2018). Format: functional. A general note: Alpha assays give light when donor and acceptor beads are brought close together.
Test [6] is described as follows: growth suppression of beta-catenin-knockout colon cells, dose response, cell-based, HCT116, human colon tumor (AID 1045).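 Also: HCT116 colon tumor cells with beta catenin knocked out; cells exposed to compound for 60 hours.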 Type of test: functional.
The target of another test is T3, Coagulation factor XII (Homo sapiens, UniProt P00748).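 Also: activated factor XIIa alpha cleaving a fluorogenic AMC peptide substrate; inhibitor potency from loss of enzyme activity.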
T3 sequence (P00748 whole entry): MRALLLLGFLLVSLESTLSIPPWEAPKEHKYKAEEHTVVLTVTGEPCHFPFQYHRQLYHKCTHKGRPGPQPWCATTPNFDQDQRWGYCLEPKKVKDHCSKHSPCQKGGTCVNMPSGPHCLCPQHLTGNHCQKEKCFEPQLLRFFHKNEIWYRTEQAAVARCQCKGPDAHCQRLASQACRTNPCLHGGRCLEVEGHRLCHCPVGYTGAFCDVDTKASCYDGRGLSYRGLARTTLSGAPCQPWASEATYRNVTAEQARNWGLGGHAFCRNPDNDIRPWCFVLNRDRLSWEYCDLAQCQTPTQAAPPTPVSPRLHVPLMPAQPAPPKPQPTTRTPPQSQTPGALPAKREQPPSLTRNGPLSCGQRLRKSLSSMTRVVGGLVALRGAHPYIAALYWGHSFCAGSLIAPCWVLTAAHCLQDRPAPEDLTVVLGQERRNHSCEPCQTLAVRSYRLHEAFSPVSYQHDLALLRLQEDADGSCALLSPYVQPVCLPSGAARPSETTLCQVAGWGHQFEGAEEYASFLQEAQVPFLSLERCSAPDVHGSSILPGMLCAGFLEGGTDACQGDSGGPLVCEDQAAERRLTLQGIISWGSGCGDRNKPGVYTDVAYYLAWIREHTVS
Format: functional.

The next test addresses Prothrombin (Homo sapiens, UniProt P00734). Kind of test: Thrombin 1536 HTS Dose Response Confirmation. [Related pubchem assays: 1046 (Thrombin 1536 HTS; hits were confirmed in this assay)]. Type of test: functional.
Test [7] can be described thus: control 3'UTR Renilla luciferase suppression, dose response, counter-screen for Shn3 inhibitor project, cell-based, Clone20-Shn3RL, cherry-picked (AID 624133). Format: functional.
In test [8] the target is T4, Heat shock factor protein 1 (Mus musculus, UniProt P38532).
T4 sequence (P38532 whole entry): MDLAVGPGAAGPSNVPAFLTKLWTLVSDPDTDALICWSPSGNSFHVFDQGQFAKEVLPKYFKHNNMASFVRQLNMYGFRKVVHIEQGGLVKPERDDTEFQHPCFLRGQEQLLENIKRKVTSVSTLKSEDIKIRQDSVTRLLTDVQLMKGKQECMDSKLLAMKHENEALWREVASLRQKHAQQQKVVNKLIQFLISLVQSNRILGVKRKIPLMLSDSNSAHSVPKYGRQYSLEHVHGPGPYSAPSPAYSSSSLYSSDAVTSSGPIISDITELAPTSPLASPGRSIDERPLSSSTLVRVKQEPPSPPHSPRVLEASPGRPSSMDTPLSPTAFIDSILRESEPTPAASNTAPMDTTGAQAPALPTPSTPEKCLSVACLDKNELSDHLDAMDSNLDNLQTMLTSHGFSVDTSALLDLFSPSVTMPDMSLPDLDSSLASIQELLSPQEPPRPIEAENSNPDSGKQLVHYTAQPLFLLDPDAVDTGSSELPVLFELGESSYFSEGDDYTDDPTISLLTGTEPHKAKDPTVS
Put plainly: inhibition of MG132-induced HSE-luciferase signal, confirmation, cell-based, NIH3T3, luminescence, dose retest (AID 2382).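 Also: NIH3T3 fibroblasts with HSF1-driven luciferase reporter stressed by proteasome inhibitor MG132; luminescence from HSF1-driven luciferase expression after 8 hours of MG132 stress.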 Format: functional.

The nature of test [9]: HepG2 cell cytotoxicity, dose response, cytotoxicity control for Shn3 inhibitor project, CellTiter-Glo, cherry-picked (AID 624134). Format: functional, cell-based. Background: ATP-based viability assays read luminescence as a measure of living cells.
Test [10] is described as follows: Shn3 3'UTR reporter inhibitors, dose response, cell-based, Clone20 osteoblasts, firefly luciferase, cherry-picked (AID 624132).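 Also: firefly luciferase luminescence from reporter carrying the Shn3 3'UTR in osteoblasts.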 Type of test: functional.
A short description of test [11]: cytotoxicity in HEK-293T cells, dose response, cytotoxicity control for TCR NF-kB inhibitor project, luminescence, T-cell screen hits (AID 489026).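 Also: cells exposed to compound about 14 hours before the viability readout.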 Type of test: functional, cell-based.
For another test, the system named is INS1. Put plainly: beta cell apoptosis inhibitors, cytokine rescue, dose response, luminescence, retest (AID 449756).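 Also: cell death triggered by IL-1 beta plus TNF-alpha plus IFN-gamma mixture; protective hits raise ATP signal compared with cytokine alone wells.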 As to conditions: Rattus norvegicus. Type of test: functional, cell-based.

Activity calls are given as the source filed them. Where only a bound is given, the exact number is not on record here.

T2 sequence (Q9UBE0 whole entry): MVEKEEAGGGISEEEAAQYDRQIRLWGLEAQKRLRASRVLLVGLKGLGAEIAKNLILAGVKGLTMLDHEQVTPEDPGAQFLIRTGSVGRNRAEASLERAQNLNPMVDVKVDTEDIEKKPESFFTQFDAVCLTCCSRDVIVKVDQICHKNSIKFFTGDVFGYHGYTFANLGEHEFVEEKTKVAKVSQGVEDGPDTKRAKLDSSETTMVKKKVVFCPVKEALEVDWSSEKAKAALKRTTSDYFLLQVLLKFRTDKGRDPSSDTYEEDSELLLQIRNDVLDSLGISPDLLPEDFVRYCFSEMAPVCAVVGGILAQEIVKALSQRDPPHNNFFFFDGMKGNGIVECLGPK
T2 sequence (Q9UBT2 whole entry): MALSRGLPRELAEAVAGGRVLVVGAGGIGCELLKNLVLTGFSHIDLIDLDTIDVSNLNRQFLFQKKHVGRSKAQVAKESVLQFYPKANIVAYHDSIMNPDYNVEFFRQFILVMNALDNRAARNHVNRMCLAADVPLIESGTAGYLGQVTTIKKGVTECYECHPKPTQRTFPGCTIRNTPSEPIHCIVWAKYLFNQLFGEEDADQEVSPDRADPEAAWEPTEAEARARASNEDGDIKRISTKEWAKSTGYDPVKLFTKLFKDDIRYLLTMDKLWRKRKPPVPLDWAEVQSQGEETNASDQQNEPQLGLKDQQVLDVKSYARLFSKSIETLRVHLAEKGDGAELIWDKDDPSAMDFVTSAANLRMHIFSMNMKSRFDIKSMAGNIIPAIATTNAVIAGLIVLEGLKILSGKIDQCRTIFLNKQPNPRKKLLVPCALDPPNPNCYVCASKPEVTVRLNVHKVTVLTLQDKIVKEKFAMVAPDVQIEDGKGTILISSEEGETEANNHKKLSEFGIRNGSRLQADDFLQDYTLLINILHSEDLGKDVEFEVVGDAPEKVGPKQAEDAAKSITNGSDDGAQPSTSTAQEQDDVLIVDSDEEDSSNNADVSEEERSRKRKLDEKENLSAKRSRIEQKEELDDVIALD
Albumin, sequence (P02769 whole entry): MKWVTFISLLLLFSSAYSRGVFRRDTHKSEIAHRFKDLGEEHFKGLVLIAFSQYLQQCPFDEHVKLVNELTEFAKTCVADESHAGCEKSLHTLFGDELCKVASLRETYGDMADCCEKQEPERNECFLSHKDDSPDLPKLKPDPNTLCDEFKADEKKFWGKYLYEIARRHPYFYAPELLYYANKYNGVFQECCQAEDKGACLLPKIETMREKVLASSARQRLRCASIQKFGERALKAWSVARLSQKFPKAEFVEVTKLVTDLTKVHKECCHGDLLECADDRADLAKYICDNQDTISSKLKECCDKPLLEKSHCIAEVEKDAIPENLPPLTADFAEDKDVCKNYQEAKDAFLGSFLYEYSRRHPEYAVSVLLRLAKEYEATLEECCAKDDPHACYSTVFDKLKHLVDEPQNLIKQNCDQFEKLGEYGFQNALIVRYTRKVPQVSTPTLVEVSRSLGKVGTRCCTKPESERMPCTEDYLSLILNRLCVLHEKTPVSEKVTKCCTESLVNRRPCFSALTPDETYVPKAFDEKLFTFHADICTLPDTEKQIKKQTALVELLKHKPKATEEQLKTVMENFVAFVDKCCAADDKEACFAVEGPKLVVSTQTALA

The CC50 is the concentration at which the toxic effect on the cells reaches its halfway point. As for `COc1ccc(-c2csc(NC(C)c3nc4cc(Cl)c(Cl)cc4n3CCCO)n2)cc1` (stereo unspecified), the CC50 in [1] was 15.4 µM (active).

What is called EC50 is the concentration giving half of the maximal effect. With `CN(Cc1ccccc1O)CC1CCCN(CCc2ccc(Cl)cc2)C1` (stereo unspecified), in test [2], the EC50 was > 50 µM (active).

The term IC50 denotes the midpoint of a concentration-inhibition curve. As to `COc1cccc(/C=C2/SC(=S)N(CC(=O)NNC(=O)c3ccccc3O)C2=O)c1`, the IC50 was > 94.1 µM (inactive) at Albumin; > 119 µM (inactive) on Exodeoxyribonuclease V; > 119 µM (inactive) in test [3]; 11.8 µM (active) at SUMO-activating enzyme [4]; 29.4 µM (active) at SUMO-activating enzyme [5].

Regarding `CCOC(=O)c1cc2sccc2n1CC(=O)N1c2ccccc2CC1C` (stereo unspecified), the EC50 in test [6] was 445 µM (active). Also, at Coagulation factor XII, the IC50 was > 50 µM (inactive).

With `Cc1c(NC(=O)CSc2nc3ccccc3s2)c(=O)n(-c2ccccc2)n1C`, on Coagulation factor XII, the IC50 is > 50 µM (inactive).

Take `CN(C)C(=O)CSc1nnc([C@@H](N)Cc2ccccc2)o1`: the IC50 at Prothrombin is > 50 µM (not active); on Coagulation factor XII, > 50 µM (inactive).

Take `COC(=O)Cn1c(=O)c(C)nc2ccccc21`: the EC50 in [2] was > 50 µM (active).

`COCc1n[nH]c2c1C(c1c(F)cccc1Cl)C(C#N)=C(N)O2` (stereo unspecified): the EC50 in [2] was > 50 µM (active).

Broadly, the AC50 is the concentration giving half of the maximal activity seen. For `C=C(C)C(=O)O[C@H]1C/C(C)=C\C(=O)/C=C(\C)[C@H](O)[C@@H]2OC(=O)C(=C)[C@@H]21`, the AC50 was 11.1 µM (active) in [7], 6.81 µM (active) in test [9], 3.02 µM (active) in test [10] and 8.02 µM (active) in the test with INS1. Besides, the CC50 in test [1] is 3.71 µM (active). The EC50 in test [8] was 8.1 µM (active). Moreover, the IC50 in [11] is > 80 µM (inactive).

Values taken from ChEMBL document CHEMBL1201862, “PubChem BioAssay data set” (2004).
